“And” between values parts separate entries of the source, which are not always exact repeats. Equal entries are not always repeated.
Columns and labels:
Format in all cases: in vivo, Balb/c mice
peritoneal macrophages = assay: Phagocytosis of HEMA particles by cells from peritoneal cavity after intraperitoneal injection; settings: for % of phagocytosing macrophages: peritoneal cells 24 hrs after i.p. injection
Procedure: A group of Balb/c mice (Jackson laboratory, Bar Harbor, Me., USA) has been injected intraperitoneally with either PBS (control), Laminaritetraose or Laminaripentaose. 24 hrs later, mice were sacrificed, peritoneal cells were collected into Hanks medium (Sigma).
After counting the cells in hemocytometer, the peritoneal cells were diluted to lxlO7 cells in RPMI 1640 medium (Sigma) with 5% fetal calf serum (Hyclone, Logan, Utah, USA).
2×10^6 cells in 0.2 ml of RPMI 1640 medium supplemented with 5% fetal calf serum were mixed with the same volume of HEMA particles (5×10^8/ml).
The suspension was incubated for 60 minutes at 37° C. with occasional agitation. Incubation was terminated by centrifugation (150 g for 5 minutes) and the pellet was resuspended.
Macrophages with ingested particles were scored under the optical microscope in smears after Accustain (modified Wright stain, Sigma) staining.
Cells with six or more engulfed particles were considered to be positive.

TNF-alpha = assay: Cytokine level in peripheral blood: TNF-alpha in serum by OptEIA Mouse TNF-alpha ELISA; settings: for TNF-alpha level (Table 6, same experiments as Table 5): 250 μg/mouse, unit not given in Table 6 (Table 5: pg/ml); for Relative activity on TNF-alpha level (in words): comparison between substances, Table 6, 24 and 48 h
Procedure: Balb/c mice were intraperitoneally injected with 50 μg of Laminaritetraose, Laminaripentaose, Laminarin or Lentinan (purchased from NIH, Bethesda, Md., USA) in PBS.
After various time intervals (30, 60 and 90 minutes, respectively), after the injection of Laminaritetraose, Laminaripentaose, Laminarin, Lentinan only, the mice were killed and blood was collected in Eppendorf tubes.
Subsequently, the serum of the collected blood was separated, collected and stored at −80° C. for no more than 1 week.
The level of TNF-alpha in the serum samples was evaluated using a commercial kit marketed as OptEIA Mouse TNF-alpha (Mono/Mono) Set by the Company Pharmingen, San Diego, Calif., USA); the manufacturer's instructions were followed.
In connection with the experiments carried out by Applicants, Balb/c mice were intraperitoneally injected with various doses (50, 100, and 250 μg) of Soluble laminarin and Lentinan (from NIH, Bethesda, Md., USA) in PBS.
Control mice were treated with PBS only. […]
Subsequently, the serum was prepared, collected and stored at −80° C. for no more than 1 week.
The level of TNF-alpha in serum samples was evaluated using a commercial kit marketed as OptEIA Mouse TNF-alpha (Mono/Mono) Set by the Company Pharmingen, San Diego, Calif., USA); the manufacturer's instructions were followed.
In that respect, The wells of 96-well plates were coated with 0.1 ml/well of capture antibody (provided in the above kit) diluted in coating buffer (also provided in the above kit); the expression “capture antibody” designates first antibody used for coating of wells; this antibody captures the tested cytokines from the solution; in this assay it was anti-mouse-TNF-alpha monoclonal antibody.
The plates were sealed and incubated overnight at 4° C.
Individual wells were emptied by aspiration and washed 3 times with over 300 el/well of wash buffer (also provided in the kit).
Reaction was blocked with 200 el/well of assay dilutant diluent (also provided in the kit) and by incubation for 60 minutes at room temperature.
Again, individual wells were emptied by aspiration and washed 3 times with over 300 el/well of the same wash buffer.
Standards (also provided in the kit) and samples of serum were diluted in assay diluent (also provided in the kit) and pipetted (100 μl/well) in appropriate wells; as far as the dissolution rate is concerned standards (part of the kit) were diluted according to the instructions into following concentrations: 1000 pg/ml, 500 pg/ml, 250, 125, 62.5, 31.3, and 15.6 pg/ml.
The plates were sealed and incubated for 60 minutes at room temperature. Individual wells were aspirated and washed 3 times with over 300 μl/well of the same wash buffer. A quantity of 100 μl/well of a working detector (antibody-avidin-HRP conjugate also provided in the kit) was added into each well.
The plates were sealed with plastic foils and incubated for 60 minutes at room temperature. Individual wells were emptied by aspiration and washed 3 times with over 300 μl/well of same wash buffer.
A quantity of 100 μl/well of substrate solution (also provided in the kit) was added to each well and the plates were incubated for 30 minutes in the dark at room temperature; “substrate solution” is formed by mixing a substrate reagent A containing hydrogen peroxide and Substrate reagent B containing 3,3′,5,5′-tetramethylbenzidine in organic solvent; when mixed together, the reagent reacts with peroxidase-labeled conjugates to develop a blue color.
A quantity of 50 μl/well of stop solution provided in the kit and adapted to stop the reaction was added to each well and the optical density was determined using a STL ELISA reader (marketed by Tecan U.S., Research Triangle Park, N.C.) at 450 nm with a correction at 570 nm.
The concentration of TNF-alpha, in pg/ml, in the blood of the mice treated as hereabove disclosed has been determined at the following moments: 30, 60 and 90 minutes after the injection of Laminaritetraose, Laminaripentaose, Lentinan and control. […]

[1] = tested on: peritoneal cells (macrophages, lymphocytes, mast cells); assay: Differential count in peritoneal cells; settings: for % of lymphocytes / % of macrophages / % of mast cells: peritoneal cells 24 hrs after i.p. injection
Procedure: (§1) Using the same experimental groups as described above in Example 4, two extra microscopic slides from each experimental sample were prepared. After Accustain (modified Wright stain, Sigma) staining, the slides were evaluated using the optical microscope for presence of individual types of cells, i.e. macrophages, lymphocytes and mast cells.

[2] = tested on: cells from peripheral blood (monocytes, granulocytes); assay: Phagocytosis of HEMA particles by cells from peripheral blood after intraperitoneal injection; settings: for % of phagocytosing granulocytes / % of phagocytosing monocytes: peripheral blood 24 hrs after i.p. injection
Procedure: A group of Balb/c mice (Jackson laboratory, Bar Harbor, ME, USA) has been injected intraperitoneally with either PBS (Control; Sigma, St. Louis, Mo., USA), Laminaritetraose or Laminaripentaose. 24 hrs later, mice were sacrified, peripheral blood from the orbital plexus was collected into heparine (5 IU/ml) (Sigma).
After counting, a test of phagocytosis of HEMA particles (synthetic microspheres prepared from 2-hydroxyethylmethacrylate copolymer) was performed as described in: Rembaum et al., 1976, Vetvicka et al. 1982, Bilej et al., 1989.
0.1 ml of heparinized fresh blood was added to 0.05 ml of diluted HEMA particles (5×10^8/ml) and incubated for 60 minutes at 37° C. with occasional gentle agitation.
After the end of incubation, the cell suspension was smeared over microscope slides. Smears were evaluated under the optical microscope after Accustain (modified Wright stain, Sigma) staining.
Cells with at least three engulfed particles were considered to be positive.

[3] = tested on: peripheral blood cells (monocytes, lymphocytes, granulocytes); assay: Differential count in blood; settings: for % of granulocytes / % of lymphocytes / % of monocytes: peripheral blood 24 hrs after i.p. injection
Procedure: as §1, with “3,” for “4,”, “monocytes,” for “macrophages,”, “granulocytes.” for “mast cells.”

[4] = individual values, cells with at least three engulfed HEMA particles positive
[5] = mean, at least three engulfed HEMA particles

OC[C@H]1O[C@@H](O[C@@H]2[C@@H](O)[C@H](O[C@@H]3[C@@H](O)[C@H](O[C@@H]4[C@@H](O)[C@H](O[C@@H]5[C@@H](O)[C@H](O)O[C@H](CO)[C@H]5O)O[C@H](CO)[C@H]4O)O[C@H](CO)[C@H]3O)O[C@H](CO)[C@H]2O)[C@H](O)[C@@H](O)[C@@H]1O [Laminaripentaose, β-D-glucopyranosyl-(1→3)-β-D-glucopyranosyl-(1→3)-β-D-glucopyranosyl-(1→3)-β-D-glucopyranosyl-(1→3)-β-D-glucopyranose]
% of phagocytosing macrophages (peritoneal macrophages; individual values, cells with six or more engulfed HEMA particles positive): 54.9% and 57.3% and 62.7% | % of phagocytosing macrophages (peritoneal macrophages; mean, six or more engulfed HEMA particles): 58.3% | Effect on phagocytosis of peritoneal macrophages (in words) (peritoneal macrophages; peritoneal cells, versus PBS control): strongly stimulate phagocytosis | Concentration of TNF alpha in blood of treated mice (TNF-alpha; 50 μg/mouse i.p., 30 min): 34.3 pg/mL | Concentration of TNF alpha in blood of treated mice (TNF-alpha; 50 μg/mouse i.p., 60 min): 37.0 pg/mL | Concentration of TNF alpha in blood of treated mice (TNF-alpha; 50 μg/mouse i.p., 90 min): 71.3 pg/mL | Concentration of TNF alpha in blood of treated mice (TNF-alpha; 100 μg/mouse i.p., 30 min): 53.0 pg/mL | Concentration of TNF alpha in blood of treated mice (TNF-alpha; 100 μg/mouse i.p., 60 min): 46.5 pg/mL | Concentration of TNF alpha in blood of treated mice (TNF-alpha; 100 μg/mouse i.p., 90 min): 93.2 pg/mL | Concentration of TNF alpha in blood of treated mice (TNF-alpha; 250 μg/mouse i.p., 30 min): 42.1 pg/mL | Concentration of TNF alpha in blood of treated mice (TNF-alpha; 250 μg/mouse i.p., 60 min): 36.4 pg/mL | Concentration of TNF alpha in blood of treated mice (TNF-alpha; 250 μg/mouse i.p., 90 min): 24.4 pg/mL | TNF-alpha level (Table 6, same experiments as Table 5) (TNF-alpha; 24 hours): 79.6 pg/mL | TNF-alpha level (Table 6, same experiments as Table 5) (TNF-alpha; 48 hours): 38.7 pg/mL | Relative activity on TNF-alpha level (in words) (TNF-alpha): more active than Laminaritetraose | Relative activity on TNF-alpha level (in words) (TNF-alpha; listed as laminaripentaose): more active than yest derived glucan (Lentinan) | Increase of TNF-alpha secretion compared with Lentinan (in words) (TNF-alpha; low doses, indirect activation of macrophages and cytotoxic T lymphocytes): significantly higher | % of lymphocytes ([1]; individual values): 48.1% and 48.0% and 34.7% | % of macrophages ([1]; individual values): 50.4% and 48.1% and 59.8% | % of mast cells ([1]; individual values): 1.5% and 3.9% and 5.5% | % of lymphocytes ([1]; mean): 43.4% | % of macrophages ([1]; mean): 52.8% | % of mast cells ([1]; mean): 3.6% | Effect on migration of macrophage into the peritoneal cavity (in words) ([1]; versus PBS control): stimulate the migration of macrophage | % of phagocytosing granulocytes [2, 4]: 40.8% and 42.5% and 46.4% | % of phagocytosing monocytes [2, 4]: 41.6% and 43.1% and 49.6% | % of phagocytosing granulocytes [2, 5]: 43.2% | % of phagocytosing monocytes [2, 5]: 44.8% | Effect on phagocytosis in monocytes and granulocytes (in words) ([2]; peripheral blood, versus PBS control): strongly stimulate phagocytosis | % of granulocytes ([3]; individual values): 33.8% and 35.9% and 36.9% | % of lymphocytes ([3]; individual values): 57.1% and 54.1% and 53.3% | % of monocytes ([3]; individual values): 9.1% and 1.0% and 9.8% | % of granulocytes ([3]; mean): 35.5% | % of lymphocytes ([3]; mean): 54.8% | % of monocytes ([3]; mean): 9.4% | Effect on number of granulocytes in the peripheral blood (in words) ([3]; versus PBS control): increase the number of granulocytes

Lentinan [reference compound]
Concentration of TNF alpha in blood of treated mice (TNF-alpha; 50 μg/mouse i.p., 30 min): 20 pg/mL | Concentration of TNF alpha in blood of treated mice (TNF-alpha; 50 μg/mouse i.p., 60 min): 15.7 pg/mL | Concentration of TNF alpha in blood of treated mice (TNF-alpha; 50 μg/mouse i.p., 90 min): 32.0 pg/mL | Concentration of TNF alpha in blood of treated mice (TNF-alpha; 100 μg/mouse i.p., 30 min): 28 pg/mL | Concentration of TNF alpha in blood of treated mice (TNF-alpha; 100 μg/mouse i.p., 60 min): 30.7 pg/mL | Concentration of TNF alpha in blood of treated mice (TNF-alpha; 100 μg/mouse i.p., 90 min): 20.3 pg/mL | Concentration of TNF alpha in blood of treated mice (TNF-alpha; 250 μg/mouse i.p., 30 min): 86.3 pg/mL | Concentration of TNF alpha in blood of treated mice (TNF-alpha; 250 μg/mouse i.p., 60 min): 68.7 pg/mL | Concentration of TNF alpha in blood of treated mice (TNF-alpha; 250 μg/mouse i.p., 90 min): 48.6 pg/mL
